According to US12319710B2, “Catecholamine prodrugs for use in the treatment of Parkinson's diseases” (H. Lundbeck A/S, priority 2019, dated 2025):
Entries after “also recorded” stand apart in the source; their conditions may differ.

Key:
human 5-HT2B receptor = molecular target: T1, human 5-HT2B receptor (Homo sapiens, UniProt P41595); assay: 5-HT2B radioligand binding assay ([125I](±)DOI, CHO cell membranes); settings: read-out: 5-HT2B % @ 10 μM (binding affinity, % inhibition of control specific binding)
T1 construct: host or cells: CHO cells (membrane homogenates)
Procedure: Evaluation of the affinity of compounds for the human 5-HT2B receptor was determined in a radioligand binding assay at Eurofins/Cerep (France). Membrane homogenates prepared from CHO cells expressing the human 5HT2B receptor were incubated for 60 minutes at room temperature with 0.2 nM [1251](±)DOI (1-(4-iodo-2, 5-dimethoxyphenyl)propan-2-amine) in the absence or presence of the test compound in a buffer containing 50 mM Tris-HCl (pH 7.4), 5 mM MgCl2, 10 μM pargyline and 0.1% ascorbic acid. Nonspecific binding is determined in the presence of 1 μM (±)DOI. Following incubation, the samples were filtered rapidly under vacuum through glass fiber filters (GF/B, Packard) presoaked with 0.3% polyethyleneimine (PEI) and rinsed several times with ice-cold 50 mM Tris-HCl using a 96-sample cell harvester (Unifilter, Packard). The filters were dried and counted for radioactivity in a scintillation counter (Topcount, Packard) using a scintillation cocktail (Microscint 0, Packard). The results are expressed as a percent inhibition of the control radioligand specific binding. The standard reference compound was (±)DOI, which was tested in each experiment at several concentrations to obtain a competition curve from which its IC50 is calculated.

[1] = PK experiments in rats: plasma compound (I) after oral dosing of prodrug; assay type: in vivo, Wistar rats; settings: for Observed metabolite, in vivo PK study after oral dosing (rats): plasma
Procedure: Plasma was placed on water-ice following collection. Final storage at approximately −70° C.
Mobile phase B: Acetonitrile. […] Flow rate 0.5 mL/min.
The rats had unrestricted access to the diet.
Mobile phase B: Acetonitrile+0.2% formic acid. […] Flow rate 0.3 mL/min.
Dosing and blood sampling: Han Wistar rats were supplied by Envigo, UK. […] The rats received a standard laboratory diet Teklad 2014C. The rats had unrestricted access to the diet. […] Rats were given […] (Ic), 487 ag/kg compound (7), 487 ag/kg Compound (4), 674 ag/kg compound (9), 359 ag/kg A6 and 551 ag/kg A2.

human hepatocytes = assay: Conversion of compounds in human hepatocytes; assay type: in vitro ADME; settings: 1 μM compound, 37° C.; nd: not detected
Procedure: Incubations were conducted in 96-well plates at 1 μM compound concentration in duplicate. The hepatocyte cell concentration was 0.5×10^6 cells/mL used for final incubation at 37° C. in an incubator of 5% CO2 95% relative humidity. The medium control samples were included at 0 and 60 minutes in the absence of cells. The total organic concentration was 1% (DMSO 0.1%) in the final incubation. The controls, (7-ethoxycoumarin and 7-hydroxycoumarin) was incubated parallel at […]. 2 μL of dosing solution (50 μM for test compounds and 100 μM for positive control) was mixed with 98 μL of 100 mM PBS to achieve 1 μM test compound and 2 μM positive control of final concentration. The mixture was incubated, and samples were withdrawn from the incubations at pre-determined time points of 0, 0.5, 1, 2, 4 and 6 hour (in duplicate) at 37° C. in water bath. To each sample, 10 μL inhibitor and 20 μL ascorbic acid and 2 μL formic acid (20%) were added followed by 400 μL of stop solution (200 ng/mL tolbutamide plus 200 ng/mL labetalol in 50% ACN/MeOH). The substance was mixed thoroughly and thereafter centrifuged at 4,000 rpm for 20 minutes. An aliquot of supernatant (50 μL) from each well were transferred to a sample plate and mixed with 100 μL ultrapure water. The plate was shaked at 800 rpm for about 10 minutes before submitting to LC-MS/MS analysis.
(§1) Instrumentation Used for Analysis of Plasma and Hepatocyte Incubation Samples
(§2) Mass spectrometer (LC-MS/MS) Shimadzu LC 20-AD Shimadzu UHPLC API 4000. Analytical column ACQUITY UPLC® BEH Phenyl 1.7 μm 2.1×50 mm. Mobile phase A: 0.1% Formic Acid in Water. Mobile phase B: 0.1% Formic Acid in Acetonitrile. […] Flow rate 0.7 mL/min.

[2] = Conversion of compounds in human plasma; assay type: in vitro ADME; settings: for Observed metabolite, incubation in human plasma: 1 μM test compound, 37° C., 0-6 hours, nd: not detected
Procedure: Frozen human plasma was thawed and then centrifuged at 3200×g for 5 minutes to remove debris. The pH value of the supernatant was then measured and adjusted to 7.4±0.1 by adding 1% phosphoric acid or 1 N sodium hydroxide. 2 μL of dosing solution (50 μM for test compounds and 100 μM for positive control (propantheline bromide)) was mixed with 98 μL of blank plasma to achieve 1 μM test compound and 2 μM positive control of final concentration. The mixture was incubated, and samples were withdrawn from the incubations at the pre-determined time points of 0, 0.5, 1, 2, 4 and 6 hours (in duplicate) at 37° C. in water bath. At each corresponding time point 10 μL inhibitor and 20 μL ascorbic acid and 2 μL formic acid (20%) are added, and then added 400 μL of “stop solution” (200 ng/mL tolbutamide plus 200 ng/mL labetalol in 50% ACN/MeOH) to precipitate protein. The substance was mixed thoroughly and thereafter centrifugated at 4,000 rpm for 20 minutes. Then an aliquot of supernatant (50 μL) was transferred from each well to a sample plate and mixed with 100 μL ultrapure water. The plate was shaked at 800 rpm for about 10 minutes before submitting to LC-MS/MS analysis.
as §1, §2

T1 sequence (P41595 whole entry): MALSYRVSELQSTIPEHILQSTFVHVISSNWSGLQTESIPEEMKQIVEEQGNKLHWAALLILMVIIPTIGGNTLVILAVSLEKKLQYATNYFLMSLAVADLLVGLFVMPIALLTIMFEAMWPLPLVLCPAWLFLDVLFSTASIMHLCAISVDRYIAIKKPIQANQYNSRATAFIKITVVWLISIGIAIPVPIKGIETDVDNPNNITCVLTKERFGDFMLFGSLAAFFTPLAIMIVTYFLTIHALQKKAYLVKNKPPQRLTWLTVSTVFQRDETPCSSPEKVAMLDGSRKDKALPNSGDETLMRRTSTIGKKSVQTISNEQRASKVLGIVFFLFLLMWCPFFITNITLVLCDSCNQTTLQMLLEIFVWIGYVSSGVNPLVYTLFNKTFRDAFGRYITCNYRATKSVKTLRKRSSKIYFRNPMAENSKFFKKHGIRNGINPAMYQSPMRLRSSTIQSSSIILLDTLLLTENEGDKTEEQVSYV

SMILES | inhibition at 10 µM (human 5-HT2B receptor) [%] | Observed metabolite, in vivo PK study after oral dosing (rats) [1] | Observed metabolite, incubation in human hepatocytes (human hepatocytes) | Observed metabolite, incubation in human plasma [2] | other results
CCCN1CCC[C@@H]2Cc3c(ccc(O[C@@H]4O[C@H](CO)[C@@H](O)[C@H](O)[C@H]4O)c3O)C[C@H]21 [Compound (7), (2S,3R,4S,5S,6R)-2-(((4aR,10aR)-6-hydroxy-1-propyl-1,2,3,4,4a,5,10,10a-octahydrobenzo[g]quinolin-7-yl)oxy)-6-(hydroxymethyl)tetrahydro-2H-pyran-3,4,5-triol] | 7 |  |  |  | 
CCCN1CCC[C@@H]2Cc3c(ccc(OCc4ccccc4)c3O)C[C@H]21 [Compound A2, (4aR,10aR)-7-(benzyloxy)-1-propyl-1,2,3,4,4a,5,10,10a-octahydrobenzo[g]quinolin-6-ol] | 30 | Compound (I) | Compound (I) | Compound (I) | 
CCCN1CCC[C@@H]2Cc3c(ccc(O[C@@H]4O[C@H](COC(C)=O)[C@@H](OC(C)=O)[C@H](OC(C)=O)[C@H]4OC(C)=O)c3O[C@@H]3O[C@H](COC(C)=O)[C@@H](OC(C)=O)[C@H](OC(C)=O)[C@H]3OC(C)=O)C[C@H]21 [Compound (8), [(2R,3R,4S,5R,6S)-6-[[(4aR,10aR)-1-propyl-6-[(2S,3R,4S,5R,6R)-3,4,5-triacetoxy-6-(acetoxymethyl)tetrahydropyran-2-yl]oxy-3,4,4a,5,10,10a-hexahydro-2H-benzo[g]quinolin-7-yl]oxy]-3,4,5-triacetoxy-tetrahydropyran-2-yl]methyl acetate] | -12 |  |  |  | 
CCCN1CCC[C@@H]2Cc3c(ccc(O[C@@H]4O[C@H](CO)[C@@H](O)[C@H](O)[C@H]4O)c3O[C@@H]3O[C@H](CO)[C@@H](O)[C@H](O)[C@H]3O)C[C@H]21 [Compound (9), (2R,2′R,3S,3′S,4S,4′S,5R,5′R,6S,6′S)-6,6′-(((4aR,10aR)-1-propyl-1,2,3,4,4a,5,10,10a-octahydrobenzo[g]quinoline-6,7-diyl)bis(oxy))bis(2-(hydroxymethyl)tetrahydro-2H-pyran-3,4,5-triol)] | -5 | Compound (I) | Compound (4); also recorded: Compound (7) | Compound (7) | 
CCCN1CCC[C@@H]2Cc3c(ccc(O)c3O[C@@H]3O[C@H](COC(C)=O)[C@@H](OC(C)=O)[C@H](OC(C)=O)[C@H]3OC(C)=O)C[C@H]21 [Compound (2), (2R,3R,4S,5R,6S)-2-(acetoxymethyl)-6-(((4aR,10aR)-7-hydroxy-1-propyl-1,2,3,4,4a,5,10,10a-octahydrobenzo[g]quinolin-6-yl)oxy)tetrahydro-2H-pyran-3,4,5-triyl triacetate] | -6 |  |  | Glucuronide | Observed metabolite, incubation in human plasma ([2]; listed as compound (2)): glucuronide derivative
CCCN1CCC[C@@H]2Cc3c(ccc(O)c3O[C@@H]3O[C@H](CO)[C@@H](O)[C@H](O)[C@H]3O)C[C@H]21 [Compound (4), (2S,3R,4S,5S,6R)-2-(((4aR,10aR)-7-hydroxy-1-propyl-1,2,3,4,4a,5,10,10a-octahydrobenzo[g]quinolin-6-yl)oxy)-6-(hydroxymethyl)tetrahydro-2H-pyran-3,4,5-triol] | 0 | Compound (I) | Compound (I) |  | Observed metabolite, in vivo PK study after oral dosing (rats) ([1]; listed as compound (4)): showed conversion in vivo
CCCN1CCC[C@@H]2Cc3c(ccc(OC(=O)C(C)(C)C)c3OC(=O)C(C)(C)C)C[C@H]21 [(Ic), reference compound] | -5 |  |  |  | plasma concentrations of compound (I) after oral dosing (in words) ([1]; Wistar rats, oral): extremely low
CCCN1CCC[C@@H]2Cc3c(ccc(O[C@@H]4O[C@H](COC(C)=O)[C@@H](OC(C)=O)[C@H](OC(C)=O)[C@H]4OC(C)=O)c3OC(C)=O)C[C@H]21 [Compound (6), (2S,3R,4S,5R,6R)-2-(((4aR,10aR)-6-acetoxy-1-propyl-1,2,3,4,4a,5,10,10a-octahydrobenzo[g]quinolin-7-yl)oxy)-6-(acetoxymethyl)tetrahydro-2H-pyran-3,4,5-triyl triacetate] | -5 |  | Compound (7); also recorded: Compound (5) | Compound (7); also recorded: Compound (5) | 
CCCN1CCC[C@@H]2Cc3c(ccc(O)c3O)C[C@H]21 [(I), (4aR,10aR)-1-Propyl-1,2,3,4,4a,5,10,10a-octahydro-benzo[g]quinoline-6,7-diol, reference compound] |  |  |  |  | half-life in the plasma assay ([2]; human plasma incubation): short half-life
CCCN1CCC[C@@H]2Cc3c(ccc(OC(C)=O)c3O[C@@H]3O[C@H](COC(C)=O)[C@@H](OC(C)=O)[C@H](OC(C)=O)[C@H]3OC(C)=O)C[C@H]21 [Compound (3), (2S,3R,4S,5R,6R)-2-(((4aR,10aR)-7-acetoxy-1-propyl-1,2,3,4,4a,5,10,10a-octahydrobenzo[g]quinolin-6-yl)oxy)-6-(acetoxymethyl)tetrahydro-2H-pyran-3,4,5-triyl triacetate] | 18 |  | Compound (4) |  | 
CCCN1CCC[C@@H]2Cc3c(ccc(OC)c3O)C[C@H]21 [Compound A6, (4aR,10aR)-7-methoxy-1-propyl-1,2,3,4,4a,5,10,10a-octahydrobenzo[g]quinolin-6-ol] | 24 | Compound (I) | Compound (I) |  | 
CCCN1CCC[C@@H]2Cc3c(ccc(O[C@@H]4O[C@H](COC(C)=O)[C@@H](OC(C)=O)[C@H](OC(C)=O)[C@H]4OC(C)=O)c3O)C[C@H]21 [Compound (5), (2R,3R,4S,5R,6S)-2-(acetoxymethyl)-6-(((4aR,10aR)-6-hydroxy-1-propyl-1,2,3,4,4a,5,10,10a-octahydrobenzo[g]quinolin-7-yl)oxy)tetrahydro-2H-pyran-3,4,5-triyl triacetate] | 9 |  | Compound (7) | Compound (7) | 
